Like-named read-outs stand apart in the source and are kept apart here. [BNA] = bridged nucleic acid sugar (2',4'-BNA), type not further given; d = 2'-deoxy (DNA)
Assays:
[1] = system: HeLa cells; assay: cells; assay type: cell-based; details: Homo sapiens, HeLa
Protocol: (§1) (FIGS. 66a and 66B). Next toxicity was determined, for this the modified saponins were titrated on HeLa and A431 cells. […] Next toxicity was determined, for this the modified saponins were titrated on HeLa and A431 cells.

[2] = system: A431 cells; assay: cells; assay type: cell-based; details: Homo sapiens
Protocol: as §1

[3] = system: HSP27 mRNA; assay: HSP27 mRNA gene silencing analysis in A431 cells; assay type: cell-based; details: SO1861-Ald-EMCH alone
Description: (§2) RNA from cells was isolated and analysed according to standard protocols (Biorad). qPCR primers that were used are indicated in Table A10.

[4] = system: EGFR expressing cells (A431); assay: Saponin titration on fixed 10 pM cetuximab-saporin, cell viability (MTS); assay type: cell-based; details: without cetuximab-saporin
[5] = system: human red blood cells; assay: cells; assay type: cell-based; details: Homo sapiens, Erythrocyte
Protocol: Red blood cells (RBCs) were isolated from a buffy coat using a Ficoll gradient. The obtained RBC pellet (˜4-5 ml) was washed 2× with 50 ml DPBS (without Ca^2+/Mg^2+, PAN-Biotech GmbH). Cells were pelleted by centrifugation for 10 min, 800×g at RT. RBC were counted and resuspended at 500.000.000 c/ml in DPBS (without Ca^2+/Mg^2+), based on total cell count.
(§3) Saponin dilutions were prepared in DPBS (with Ca^2+/Mg^2+, PAN-Biotech GmbH), at 1.11× final strength. For positive lysis control a 0.02% Triton-X100 solution was prepared in DPBS^+/+. Of all compound solutions 135 μl was dispensed/well in a 96 well V-bottom plate. To this 15 μl RBC suspension was added and mixed shortly (10 sec-600 rpm). The plate was incubated 30 min at RT, with gentle agitation. Afterwards the plate was spun for 10 min at 800×g to pellet the RBC and 100-120 μl supernatant was transferred to a standard 96 wp (96 well-plate).
as §3, with “DPBS+/+.” for “DPBS^+/+.”

[6] = system: A431 (EGFR++) cells; assay: Saponin derivative titration in presence and absence of […] EGFdianthin, cell viability; assay type: cell-based; details: Homo sapiens, A-431; read-out: Toxicity as single compound
[7] = pH dependent hydrolysis of the hydrazone bond (HCl solution pH 3, MALDI-TOF-MS); assay type: physicochemical; details: HCl solution at pH 3
[8] = system: HeLa (EGFR+) cells; assay: Saponin titration in presence and absence of […] EGFdianthin, cell viability; assay type: cell-based; details: Homo sapiens, read-out: General toxicity (IC50 / highest concentration)
Protocol: To extend this test, saponins from other sources were analyzed. A saponin purified from a root extract of Gypsophila elegans M.Bieb. […] FIG. 63C).

[9] = system: EGFR expressing cells (A431); assay: Saponin titration on fixed 10 pM EGFdianthin, cell viability (MTS); assay type: cell-based; details: without EGFdianthin
[10] = system: EGFR expressing cells (HeLa); assay type: cell-based; details: HeLa; + 5 pM EGFdianthin; read-out: IC50 endosomal escape enhancing activity
[11] = system: A2058 (EGFR−) cells; assay: Saponin derivative titration in presence and absence of […] EGFdianthin, cell viability; assay type: cell-based; details: Homo sapiens, read-out: Toxicity as single compound
[12] = Critical micellar concentration (CMC) by ANS fluorescence; assay type: physicochemical; details: PBS
Outline: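 Saponin solutions (dry-weight concentrations 1–1400 μM) in purified water or Dulbecco's PBS+/+ were mixed with ANS, 75.86 μM, 6 μg per sample. ANS fluorescence was read at 355 nm excitation and 460 nm emission. CMC was taken from the rise in ANS fluorescence yield as the dye partitions into micelles.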

[13] = system: HeLa cells; assay: Pilot cell-based bioassay: 10 μg/ml saponin with or without 1.5 pM dianthin-EGF, 72 h, relative cell viability; parameters: key to Cell killing activity (+ or −): Cell killing activity (+ or −); Cell killing activity (+ or −)
Protocol: HeLa cells were incubated for 72 h with the following constructs and cell viability before and after the 72 h-incubation was assessed. In the experiments, cells were exposed to 1.5 pM dianthin-EGF conjugate. A negative control were cells incubated with buffer vehicle and 10 microgram/ml saponin, without dianthin-EGF. Cell viability was set to 100% for the control in which both saponin and EGF-dianthin were omitted. […] Cell viability after 72 h was essentially 0%. For the chemically modified saponin variants, 10 microgram/ml saponin was tested in combination with 1.5 pM dianthin-EGF.

[14] = system: HSP27 mRNA; assay: HSP27 mRNA gene silencing analysis in SK-BR-3 cells; assay type: cell-based; details: in the presence of 4000 nM or 4829 nM SO1861-Ald-EMCH; read-out: IC50(SK-BR3) HSP27 gene silencing
Description: as §2

Molecule	IC50 ([1]; Table A5, saponin alone, read-out: IC50 nM (Toxicity))	IC50 ([1]; saponin alone, read-out: IC50 toxicity)	IC50 ([2]; A-431, Table A6, saponin alone, read-out: IC50 nM (Toxicity))	IC50 ([2]; A-431, text, saponin alone, read-out: IC50 toxicity)	HSP27 gene silencing activity alone [3]	Cell killing activity of saponin alone [4]	IC50 ([5]; Table A5, read-out: IC50 nM (hemolysis))	IC50 ([5]; Table A6, read-out: IC50 nM (hemolysis))	IC50 ([5]; read-out: IC50 hemolytic activity)	IC50 [6]	Hydrolysis of the hydrazone bond [7]	IC50 [8]	Cell killing activity of saponin alone [9]	IC50 [10]	IC50 [11]	CMC value [12]	Cell killing activity (+ or −) ([13]; 10 μg/ml SO1861 or SO1861-derivative + […] EGFdianthin)	Cell killing activity (+ or −) ([13]; 10 μg/ml SO1861 or SO1861-derivative alone)	Cell viability after 72 h ([13]; 10 microgram/ml saponin + […] dianthin-EGF, HeLa cells)	IC50 [14]
CC(=O)OC1C(C)OC(OC2C(C)OC(OC(=O)[C@]34CCC(C)(C)CC3C3=CCC5[C@@]6(C)CC[C@H](OC7OC(C(=O)O)C(O)C(OC8OCC(O)C(O)C8O)C7OC7OC(CO)C(O)C(O)C7O)[C@@](C)(/C=N/NC(=O)CCCCCN7C(=O)C=CC7=O)C6CC[C@@]5(C)[C@]3(C)C[C@H]4O)C(OC3OC(C)C(OC4OCC(O)C(OC5OC(CO)C(O)C(O)C5O)C4O)C(O)C3O)C2O)C(O)C1OC1OCC(O)C(O)C1O (some centres unmarked) [SO1861-Ald-EMCH]	> 100000 nM	> 100000 nM	30000 nM	30000 nM	no HSP27 gene silencing activity	no cell killing activity	> 1e+06 nM	> 1e+06 nM	> 1e+06 nM	> 25 µM	gets cleaved	> 25 µM	no cell killing activity	2 µM	> 25 µM	> 800 µM	+	−	reduced cell viability	
HSP27BNA: antisense BNA oligo against HSP27 mRNA, 5′-GGCacagccagtgGCG-3′ (antisense GGCACAGCCAGTGGCG; sugars from the 5' end [BNA]3 d10 [BNA]3, backbone and methylation of C not given here)																				0.002 µM
